Several values for one entry are separate records, joined by “and”; a condition that tells them apart may be missing. Equal values may be shown once. Read-outs that look alike come from different tables or passages of the source.
How the values were obtained:
NL63-CoV 3CL^pro = NL63-CoV 3CL^pro (Human coronavirus NL63, UniProt P0C6X5); type: biochemical
PEDV 3CL^pro = PEDV 3CL^pro (Porcine epidemic diarrhea virus, UniProt P0C6Y4); type: biochemical
FIPV 3CL^pro = FIPV 3CL^pro (Feline coronavirus, UniProt Q98VG9); type: biochemical
HKU1-CoV 3CL^pro = HKU1-CoV 3CL^pro (Human coronavirus HKU1, UniProt P0C6X2); assay: biochemical
MHV-CoV 3CL^pro = MHV-CoV 3CL^pro (Murine coronavirus, UniProt P0C6X9); type: biochemical
IBV-CoV 3CL^pro = IBV-CoV 3CL^pro (Avian infectious bronchitis virus, UniProt P0C6Y1); assay: biochemical; conditions: for Initial Velocity: triplicate, listed as Compound F2
Human Cathepsin D = Human Cathepsin D (Homo sapiens, UniProt P07339); assay: Mammalian protease panel; type: biochemical
SARS-CoV-2 USA-WA1/2020 = assay: Ad5-hACE2 SARS-CoV-2 mouse infection model; type: in vivo, BALB/c mice; conditions: 100 mg/kg BID from day 0; lungs day 3; individual mice
SARS-CoV-2 = conditions: cited from earlier work
CYP2C19 = CYP2C19 (Homo sapiens, UniProt P33261); assay: Reversible CYP inhibition in human liver microsomes
[1] = 300 mg/kg dose group
[2] = Rat 4-day continuous intravenous infusion exploratory non-GLP toxicity study
CYP3A = assay: Enzyme kinetics of metabolite formation in HLM and effect of CYP3A inhibitor ketoconazole

Sequence of CYP2C19 (P33261 whole entry): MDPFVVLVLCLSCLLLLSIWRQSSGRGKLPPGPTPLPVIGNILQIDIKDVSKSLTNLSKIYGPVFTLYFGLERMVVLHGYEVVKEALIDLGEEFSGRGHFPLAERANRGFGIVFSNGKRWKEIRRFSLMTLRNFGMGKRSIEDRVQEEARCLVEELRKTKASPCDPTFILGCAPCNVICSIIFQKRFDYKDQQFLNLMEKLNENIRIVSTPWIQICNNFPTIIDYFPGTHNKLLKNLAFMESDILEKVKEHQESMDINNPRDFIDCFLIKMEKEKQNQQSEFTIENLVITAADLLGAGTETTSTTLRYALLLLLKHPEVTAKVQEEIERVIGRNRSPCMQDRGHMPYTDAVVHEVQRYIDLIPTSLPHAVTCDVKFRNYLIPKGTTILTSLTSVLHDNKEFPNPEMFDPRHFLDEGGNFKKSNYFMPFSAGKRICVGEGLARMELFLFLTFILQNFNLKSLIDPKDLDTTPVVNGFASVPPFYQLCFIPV
Sequence of IBV-CoV 3CL^pro (P0C6Y1 2780-3086): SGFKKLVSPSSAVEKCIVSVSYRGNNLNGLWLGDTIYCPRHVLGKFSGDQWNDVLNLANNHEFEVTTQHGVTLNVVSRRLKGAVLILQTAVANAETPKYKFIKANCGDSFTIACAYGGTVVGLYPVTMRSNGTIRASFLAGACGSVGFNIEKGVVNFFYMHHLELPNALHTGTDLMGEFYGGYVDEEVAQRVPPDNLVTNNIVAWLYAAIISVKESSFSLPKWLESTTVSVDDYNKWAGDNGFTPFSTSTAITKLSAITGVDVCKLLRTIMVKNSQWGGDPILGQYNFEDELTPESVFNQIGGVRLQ
Sequence of MHV-CoV 3CL^pro (P0C6X9 3334-3635): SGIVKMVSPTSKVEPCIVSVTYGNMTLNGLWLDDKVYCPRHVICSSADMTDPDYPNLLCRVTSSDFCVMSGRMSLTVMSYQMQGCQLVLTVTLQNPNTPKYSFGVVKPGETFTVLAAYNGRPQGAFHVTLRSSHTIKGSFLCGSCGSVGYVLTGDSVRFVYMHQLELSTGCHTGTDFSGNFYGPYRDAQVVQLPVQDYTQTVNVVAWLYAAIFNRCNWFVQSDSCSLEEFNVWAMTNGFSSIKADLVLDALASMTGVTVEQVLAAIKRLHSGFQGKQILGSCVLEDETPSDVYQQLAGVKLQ
Sequence of PEDV 3CL^pro (P0C6Y4 2998-3299): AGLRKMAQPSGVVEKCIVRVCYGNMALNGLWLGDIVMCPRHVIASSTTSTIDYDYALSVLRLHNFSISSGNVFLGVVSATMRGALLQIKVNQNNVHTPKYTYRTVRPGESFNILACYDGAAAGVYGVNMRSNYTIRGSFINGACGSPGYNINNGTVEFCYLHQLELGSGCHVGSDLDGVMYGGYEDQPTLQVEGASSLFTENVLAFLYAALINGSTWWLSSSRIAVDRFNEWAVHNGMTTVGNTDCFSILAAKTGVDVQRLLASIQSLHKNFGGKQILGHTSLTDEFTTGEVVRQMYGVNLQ
Sequence of Human Cathepsin D (P07339 65-412): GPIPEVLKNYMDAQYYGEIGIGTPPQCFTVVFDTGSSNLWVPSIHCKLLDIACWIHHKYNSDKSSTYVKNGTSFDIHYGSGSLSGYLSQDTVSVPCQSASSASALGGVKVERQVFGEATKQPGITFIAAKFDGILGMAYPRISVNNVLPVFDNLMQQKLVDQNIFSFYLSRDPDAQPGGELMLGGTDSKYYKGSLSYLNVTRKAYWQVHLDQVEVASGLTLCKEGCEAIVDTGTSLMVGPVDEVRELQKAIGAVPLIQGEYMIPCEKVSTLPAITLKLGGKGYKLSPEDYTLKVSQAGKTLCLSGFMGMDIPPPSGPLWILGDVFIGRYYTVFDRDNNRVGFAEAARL
Sequence of HKU1-CoV 3CL^pro (P0C6X2 3335-3637): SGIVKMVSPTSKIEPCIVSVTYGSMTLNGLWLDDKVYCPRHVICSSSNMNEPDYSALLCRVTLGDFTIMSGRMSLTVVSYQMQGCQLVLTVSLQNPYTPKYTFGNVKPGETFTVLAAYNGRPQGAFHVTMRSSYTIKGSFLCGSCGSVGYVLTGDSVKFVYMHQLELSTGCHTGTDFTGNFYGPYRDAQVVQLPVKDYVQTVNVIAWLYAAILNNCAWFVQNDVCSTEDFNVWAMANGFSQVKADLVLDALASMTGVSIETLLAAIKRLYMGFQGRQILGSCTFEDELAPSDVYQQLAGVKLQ
Sequence of NL63-CoV 3CL^pro (P0C6X5 2940-3242): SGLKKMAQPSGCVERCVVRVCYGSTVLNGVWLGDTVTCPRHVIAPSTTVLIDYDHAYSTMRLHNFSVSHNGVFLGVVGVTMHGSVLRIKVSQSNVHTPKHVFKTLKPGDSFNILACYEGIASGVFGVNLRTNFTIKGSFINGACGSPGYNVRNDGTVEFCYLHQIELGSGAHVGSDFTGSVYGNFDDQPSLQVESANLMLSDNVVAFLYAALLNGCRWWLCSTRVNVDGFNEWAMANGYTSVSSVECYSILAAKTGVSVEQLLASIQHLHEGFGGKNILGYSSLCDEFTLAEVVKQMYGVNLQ
Sequence of FIPV 3CL^pro (Q98VG9 2904-3205): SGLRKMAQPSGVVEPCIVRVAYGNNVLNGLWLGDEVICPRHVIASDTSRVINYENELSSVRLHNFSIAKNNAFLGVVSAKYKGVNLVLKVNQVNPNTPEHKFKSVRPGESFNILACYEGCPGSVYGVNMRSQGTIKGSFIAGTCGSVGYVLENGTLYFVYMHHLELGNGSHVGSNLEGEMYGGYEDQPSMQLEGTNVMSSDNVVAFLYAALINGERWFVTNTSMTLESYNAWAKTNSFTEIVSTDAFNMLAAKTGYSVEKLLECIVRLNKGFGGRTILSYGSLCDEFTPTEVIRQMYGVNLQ

COc1cccc2[nH]c(C(=O)N[C@@H](CC(C)C)C(=O)N[C@@H](C[C@@H]3CCNC3=O)C(=O)CO)cc12 [PF-00835231]
Ki (NL63-CoV 3CL^pro): 0.77 ± 0.52 nM
Ki (PEDV 3CL^pro): 0.3 ± 0.11 nM
Ki (FIPV 3CL^pro): 0.12 ± 0.1 nM
Ki (HKU1-CoV 3CL^pro): 0.85 ± 0.24 nM
Ki (MHV-CoV 3CL^pro): 1.2 ± 0.9 nM
Ki (IBV-CoV 3CL^pro): 4 ± 0.37 nM
Initial Velocity (IBV-CoV 3CL^pro; [Compound F2] 1.95312 nM): 0.9151 and 0.9223 and 0.9303
Initial Velocity (IBV-CoV 3CL^pro; [Compound F2] 3.90625 nM): 0.8719 and 0.9093 and 0.9026
Initial Velocity (IBV-CoV 3CL^pro; [Compound F2] 7.8125 nM): 0.7237 and 0.7704 and 0.7494
Initial Velocity (IBV-CoV 3CL^pro; [Compound F2] 31.25 nM): 0.2801 and 0.2824 and 0.2905
Initial Velocity (IBV-CoV 3CL^pro; [Compound F2] 62.5 nM): 0.09406 and 0.0968 and 0.1078
Initial Velocity (IBV-CoV 3CL^pro; [Compound F2] 250 nM): 0.02135 and 0.01561 and 0.01396
IC50 (Human Cathepsin D): > 11000 nM
Lung viral titers (SARS-CoV-2 USA-WA1/2020): 160 IU/mL and 240 IU/mL and 110 IU/mL and 3500 IU/mL and 1600 IU/mL and 1100 IU/mL
EC50 (SARS-CoV-2; P-gp inhibitor 0 uM): 193 nM
EC50 (SARS-CoV-2; P-gp inhibitor 1 uM): 178 nM
EC90 (SARS-CoV-2; human lung carcinoma cells): 440 nM
Percent of Control Activity (CYP2C19; CYP 2C19, 0.1 µM, Zero-Minute Preincubation, 0.1 µM): 97.1% and 93.1%
Percent of Control Activity (CYP2C19; CYP 2C19, 0.214 µM, 30-Minute Preincubation, 0.214 µM): 94.5% and 97.7%
Percent of Control Activity (CYP2C19; CYP 2C19, 0.214 µM, Zero-Minute Preincubation, 0.214 µM): 96.9% and 95.6%
Percent of Control Activity (CYP2C19; CYP 2C19, 0.979 µM, Zero-Minute Preincubation, 0.979 µM): 91.0% and 93.6%
Percent of Control Activity (CYP2C19; CYP 2C19, 2.09 µM, 30-Minute Preincubation, 2.09 µM): 78.6% and 76.3%
Percent of Control Activity (CYP2C19; CYP 2C19, 2.09 µM, Zero-Minute Preincubation, 2.09 µM): 89.4% and 88.4%
Percent of Control Activity (CYP2C19; CYP 2C19, 4.48 µM, 30-Minute Preincubation, 4.48 µM): 87.7% and 90.1%
Percent of Control Activity (CYP2C19; CYP 2C19, 4.48 µM, Zero-Minute Preincubation, 4.48 µM): 88.9% and 87.5%
Percent of Control Activity (CYP2C19; CYP 2C19, 20.5 µM, 30-Minute Preincubation, 20.5 µM): 82.9% and 81.5%
Percent of Control Activity (CYP2C19; CYP 2C19, 20.5 µM, Zero-Minute Preincubation, 20.5 µM): 89.8% and 81.5%
Percent of Control Activity (CYP2C19; CYP 2C19, 43.8 µM, 30-Minute Preincubation, 43.8 µM): 68.7%
Percent of Control Activity (CYP2C19; CYP 2C19, 43.8 µM, Zero-Minute Preincubation, 43.8 µM): 83.4% and 80.9%
Percent of Control Activity (CYP2C19; CYP 2C19, 93.5 µM, 30-Minute Preincubation, 93.5 µM): 66.6% and 74.6%
Percent of Control Activity (CYP2C19; CYP 2C19, 93.5 µM, Zero-Minute Preincubation, 93.5 µM): 77.3%
Percent of Control Activity (CYP2C19; CYP 2C19, 200 µM, 30-Minute Preincubation, 200 µM): 62.1% and 65.9%
Percent of Control Activity (CYP2C19; CYP 2C19, 200 µM, Zero-Minute Preincubation, 200 µM): 65.6% and 68.4%
IC50 (CYP2C19; human, microsomes, pH 7.4): > 200000 nM
activity at 0.1 µM (CYP2C19; human, microsomes, pH 7.4, Percent of Control Activity, CYP 2C19, 0.1 µM, Zero-Minute Preincubation): 95.2%
activity at 0.214 µM (CYP2C19; human, microsomes, pH 7.4, Percent of Control Activity, CYP 2C19, 0.214 µM, 30-Minute Preincubation): 99%
activity at 0.214 µM (CYP2C19; human, microsomes, pH 7.4, Percent of Control Activity, CYP 2C19, 0.214 µM, Zero-Minute Preincubation): 92.9%
activity at 0.979 µM (CYP2C19; human, microsomes, pH 7.4, Percent of Control Activity, CYP 2C19, 0.979 µM, Zero-Minute Preincubation): 81.3%
activity at 2.09 µM (CYP2C19; human, microsomes, pH 7.4, Percent of Control Activity, CYP 2C19, 2.09 µM, 30-Minute Preincubation): 79.9%
activity at 2.09 µM (CYP2C19; human, microsomes, pH 7.4, Percent of Control Activity, CYP 2C19, 2.09 µM, Zero-Minute Preincubation): 85.8%
activity at 4.48 µM (CYP2C19; human, microsomes, pH 7.4, Percent of Control Activity, CYP 2C19, 4.48 µM, 30-Minute Preincubation): 88.7%
activity at 4.48 µM (CYP2C19; human, microsomes, pH 7.4, Percent of Control Activity, CYP 2C19, 4.48 µM, Zero-Minute Preincubation): 83.6%
activity at 20.5 µM (CYP2C19; human, microsomes, pH 7.4, Percent of Control Activity, CYP 2C19, 20.5 µM, 30-Minute Preincubation): 83.9%
activity at 20.5 µM (CYP2C19; human, microsomes, pH 7.4, Percent of Control Activity, CYP 2C19, 20.5 µM, Zero-Minute Preincubation): 86.2%
activity at 43.8 µM (CYP2C19; human, microsomes, pH 7.4, Percent of Control Activity, CYP 2C19, 43.8 µM, 30-Minute Preincubation): 81.3%
activity at 43.8 µM (CYP2C19; human, microsomes, pH 7.4, Percent of Control Activity, CYP 2C19, 43.8 µM, Zero-Minute Preincubation): 85%
activity at 93.5 µM (CYP2C19; human, microsomes, pH 7.4, Percent of Control Activity, CYP 2C19, 93.5 µM, 30-Minute Preincubation): 74.5%
activity at 93.5 µM (CYP2C19; human, microsomes, pH 7.4, Percent of Control Activity, CYP 2C19, 93.5 µM, Zero-Minute Preincubation): 76.8%
activity at 200 µM (CYP2C19; human, microsomes, pH 7.4, Percent of Control Activity, CYP 2C19, 200 µM, 30-Minute Preincubation): 64.9%
activity at 200 µM (CYP2C19; human, microsomes, pH 7.4, Percent of Control Activity, CYP 2C19, 200 µM, Zero-Minute Preincubation): 69.2%
Cmin unbound exposure [1]: 1700 nM
tolerated dose (highest feasible dose tested) ([2]; male rats, 4 days continuous IV infusion): 246 mg/kg/day
cholesterol vs controls ([2]; non-adverse): 1.3 x
mean triglycerides vs controls ([2]; non-adverse): 1.9-3.6 x
phosphorus vs controls ([2]; non-adverse): 1.1 x
fm,CYP3A (CYP3A; formation of the metabolite from PF-00835231 in HLM): 0.86
microsomal CLint (CYP3A; human, pooled human liver microsomes, pH 7.5): 4.2 µL/min/mg
